Data as given in patent publication US7468270B2, “Probiotic strains, a process for the selection of them, compositions thereof, and their use” (Puleva Biotech, S.A., priority 2003, dated 2008).

Test system: Salmonella typhmurium and Escherichia coli
Test: Production of antimicrobial metabolites, agar well diffusion assay
Type: cell-based
Settings: dilution of each metabolic acid at pH 4.5; data not shown
Protocol: The probiotic strains of this invention were assessed for their capability to produce antimicrobial metabolites using an agar well diffusion assay. MRS agar plates containing 10^6 cfu/ml of different pathogenic bacteria strain (Salmonella typhmurium and Escherichia coli) were prepared. Wells, with a diameter of 5 mm, where then cut in the agar using a sterile cork-borer. Then, 50 μl of a 2 fold concentrate supernatant of each probiotic strain culture were added to the wells and allowed to diffuse into the agar during a 2 hours preincubation period at 4° C., followed by aerobic incubation of the plates at 37° C. for 16-18 hours. The antimicrobial activity of each supernatant was considered high if the diameter of the inhibition hallo for both pathogenic bacteria strains was >12, moderate between 8 and 12, and slight <8 (FIG. 11)
Moreover, it was also tested if the antimicrobial activity of the supernatants was due to a antimicrobial substance or to the production of metabolic acids. […] It was also tested the antimicrobial capabilities of supernatants obtained from bacterial cultures using glucose or lactose as a carbohydrate source.

Row | Structure (SMILES) | Inhibition of growth of Salmonella or E. coli by a dilution of metabolic acid
1 | CC(=O)O [acetic] | None of these situations inhibited the growth
2 | CCCC(=O)O [butyric, butyric acid] | None of these situations inhibited the growth
